The results in this text go back to patent US12509421B2, “Preparation and application of deuterated 4-phenyl-4-piperidinols” (priority 2022, dated 2025).

One data set addresses T1, μOR (Homo sapiens, UniProt P35372).
T1 construct: expressed in transfected cells; host or cells: CHO cells
Put plainly: Opioid receptor competitive binding test, μOR. The settings on record: compound at 10 μM; [3H]-labeled ligand; CHO cell membranes; ± SD of three measurements. How it is done: (§1) CHO cells expressing p opioid receptor, δ opioid receptor and K opioid receptor are cultured in a 10 cm^2 Petri dish (F-12 medium+10% newborn bovine serum) for several days, and the culture solution is sucked after the cells grew to the bottom of the dish. 3 ml PBS/EDTA solution (0.1M NaCl, 0.01M NaH2PO4, 0.04% EDTA) is added for digestion for 3-5 minutes. The cells are blown with a straw to get fall off completely, collected in a 40 ml centrifuge tube, centrifuged at 5000 rpm for 5 minutes, and removed with the supernatant. The centrifuge tube is added with ice-cold homogenate (50 mM HEPES PH 7.4, 3 mM MgCl2, 1 mM EGTA). The solution and precipitate are transferred to homogenizer for homogenization; Then the homogenate is transferred into a centrifuge tube, centrifuged at 18000 rpm for 15 minutes, and centrifuged twice; the obtained precipitate is added with an appropriate amount of buffer solution of 50 mM Tris-HCl and pH 7.4, homogenized and sub-packaged in centrifuge tubes. The product is stored in a refrigerator at −70° C. for later use.
(§2) 20-30 μg expressed membrane receptor protein and [3H]-labeled ligand (1-2 nM) are added to the total binding tube, added with 1 μM of corresponding ligand to the corresponding nonspecific binding tube. Various screened opioid ligand drugs (see the drug compounds in Table 1 below) are added to the sample tube with 100 μL final volume. The sample is incubated at 30° C. for 30 minutes, and the reaction is terminated in ice water. The glass fiber filter paper gF/C (whatman) is used for negative pressure filtration on Millipore sample collector. The sample is eluted with 4 ml 50 mm tris-HCl (pH 7.4) for three times, dried with the filter paper, put in 0.5 ml Eppendorf tube and added with 0.5 ml lipophilic scintillation liquid. The radioactive intensity is measured with PERKIN ELMER PRI-CARB 2910 liquid scintillation counter with calculation of the inhibition rate. The experiment is repeated for more than three times, with three compound tubes in each group. Inhibition rate(or binding rate)=(total binding rate dpm−sample tube dpm)/(total binding tube dpm-nonspecific binding tube dpm)×100%
(§3) IC50 is calculated with Prism 5.0 software. The Ki value is calculated according to the following formula: Ki=IC50/(1^+[L]/Kd), wherein [L] is the concentration of the added labeled ligand, and Kd is the equilibrium dissociation parameter of the labeled ligand.

The next data set deals with T2, δOR (Homo sapiens, UniProt P41143).
T2 construct: expressed in transfected cells; host or cells: CHO cells
As to the kind of experiment: Opioid receptor competitive binding test, δOR. To be noted: compound at 10 μM; [3H]-labeled ligand; CHO cell membranes; ± SD of three measurements. How it is done: as §1, §2, §3

A further data set concerns the target T3, κOR (Homo sapiens, UniProt P41145).
T3 construct: expressed in transfected cells; host or cells: CHO cells
As to the kind of experiment: Opioid receptor competitive binding test, κOR. To be noted: compound at 10 μM; [3H]-labeled ligand; CHO cell membranes; ± SD of three measurements. How it is done: as §1, §2, §3

For a further data set, the system named is Female Kunming mice. Put plainly: Hot plate analgesia test in mice. It counts as in vivo. The settings on record: intraperitoneal, 55° C. hot plate; for ED50: Mus musculus, ip; for Maximum analgesic effective percentage (% MPE), hot plate: 10 mg/kg. As for the experimental part: Female Kunming mice weighing about 20 g are placed on a hot plate instrument preheated to 55° C., and the latency of licking hind feet or lifting hind feet is used as the pain threshold index. Animals are screened before the experiment, and animals with latency less than 5 s or more than 30 s are excluded. To prevent foot burns, the longest observation time is set to 60s. The basic pain threshold is the average of two measurements, and the interval between the two measurements is 5 minutes. The pain threshold of mice in each group is determined at 15 minutes, 30 minutes, 60 minutes and 120 minutes after intraperitoneal administration. The effective percentage of analgesia (% MPE) is calculated according to the following formula
[formula] According to the effective percentage of analgesia, the ED50 value is calculated by graphpad prism 5.0 software.

A further data set addresses hERG potassium channel (Homo sapiens, UniProt Q12809). As to the kind of experiment: hERG potassium channel whole-cell patch clamp (HEK293). It counts as cell-based. Also noted: expressed in transfected cells; host or cells: HEK293 cell line. The settings on record: for IC50: HEK293 cells stably expressing hERG, whole-cell patch clamp, room temperature, read-out: Half-inhibition concentration of compounds to be tested on hERG (IC50). An excerpt: The rapidly activated potassium channel encoded by human ether-a-go-go-related gene (hERG) is an important ion channel involved in the formation of phase 3 repolarization of myocardial action potential. […] Drug-induced delayed ventricular repolarization may cause fatal arrhythmia-torsade de pointes in some cases. According to statistics, about 25-40% of the lead compounds show different degrees of hERG-related toxicity, and many drugs are withdrawn from the market because they may lead to the risk of QT interval extension. At present, National Medical Products Administration also requires hERG/IKr safety evaluation data before clinical trial application (IND) of new drugs under study. • 1. Whole-cell patch clamp technique is used to study the inhibitory effect of compounds on hERG potassium channels: • 1) the compound to be tested is stored with physiological saline prepared into 10 mM liquid. The test stock solution is diluted with physiological saline into 3 mM, 1 mM and 0.3 mM diluents in turn. […] The old culture medium removed and is washed once with PBS, then added with 1 mL TrypLE™ Express solution and incubated at 37° C. for about 0.5 minutes. When the cells are detached from the bottom of the dish, about 5 ml complete medium preheated is added at 37° C. The cell suspension is gently blown with a straw to separate the aggregated cells. The cell suspension is transferred to a sterile centrifuge tube and centrifuged at 1000 rpm for 5 minutes to collect cells. […] The clamping voltage is depolarized from −80 mV to −50 mV for 0.5 seconds (as leakage current detection), then stepped to 30 mV for 2.5 seconds, and then quickly recovered to −50 mV for 4 seconds, which can excite the tail current of hERG channel. Data are collected repeatedly every 10s to observe the effect of drugs on hERG tail current. 0.5 seconds-50 mV stimulation is used as leakage current detection. The test data are collected by IPA amplifier (Sutter Instrument) and stored in SutterPatch software.
Capillary glass tube is drawn into recording electrode by microelectrode drawing instrument. Under the inverted microscope, the microelectrode manipulator is operated to contact the recording electrode with the cell, and negative pressure suction is given to form a GΩ seal. After the GΩ seal is formed, rapid capacitance compensation is carried out, and then negative pressure is continuously applied to break the cell membrane, forming a whole cell recording mode. Then the slow capacitance is compensated and the film capacitance and series resistance are recorded. No leakage compensation is given.
When the hERG current recorded in the whole cell is stable, the drug is administered, and the next concentration is detected after each drug concentration acts for 5 minutes (or the current is stable), and multiple concentrations are detected for each test compound. The cover glass covered with cells is placed in the recording bath in an inverted microscope, and the test compound and the external liquid containing no compound flowed through the recording bath from low concentration to high concentration by gravity perfusion method, so as to act on the cells, and liquid exchange is carried out by using a vacuum pump during recording. The current detected by each cell in the external fluid without compounds is used as its own control group.
At least two cells are used to detect each concentration independently and repeatedly twice. All electrophysiological tests are conducted at room temperature.
Firstly, the current after each drug concentration and the blank control current are standardized
[formula] followed by the calculation of the inhibition rate
[formula] corresponding to each drug concentration, the average and standard deviation for each concentration, and the semi-inhibition concentration of each compound with the following equation: […]
The dose-dependent effect is nonlinear fitted by the above equation, and IC50 is semi-inhibitory concentration.
(hERG is a cardiac potassium channel; its block is linked to QT prolongation.)

The target in another data set is CYP 3A4 (Homo sapiens, UniProt P08684). To be noted: read-out: CYP 3A4 IC50, human liver microsomes.
A further data set concerns the target T4, CYP 1A2 (Homo sapiens, UniProt P05177).
T4 sequence (P05177 1-516): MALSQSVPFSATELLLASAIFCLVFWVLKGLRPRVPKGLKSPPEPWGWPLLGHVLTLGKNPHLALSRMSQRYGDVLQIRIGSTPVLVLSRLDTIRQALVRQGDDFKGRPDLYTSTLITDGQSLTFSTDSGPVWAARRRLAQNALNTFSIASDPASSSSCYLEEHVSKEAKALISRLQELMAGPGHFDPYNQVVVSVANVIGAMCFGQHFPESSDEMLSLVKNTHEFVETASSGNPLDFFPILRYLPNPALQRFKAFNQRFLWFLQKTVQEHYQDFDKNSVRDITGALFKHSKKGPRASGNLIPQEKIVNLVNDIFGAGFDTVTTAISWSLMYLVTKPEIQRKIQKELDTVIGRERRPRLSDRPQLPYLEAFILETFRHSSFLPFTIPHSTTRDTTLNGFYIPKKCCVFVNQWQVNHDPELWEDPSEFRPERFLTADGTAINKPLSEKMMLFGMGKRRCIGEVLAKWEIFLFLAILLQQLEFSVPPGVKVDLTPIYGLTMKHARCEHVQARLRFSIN
Put plainly: Inhibition of cytochrome P450 enzyme in human liver microsomes, CYP 1A2. To be noted: read-out: CYP 1A2 IC50; human liver microsomes; substrate Finacetin. For orientation: Liver microsomes are a subcellular fraction often used to study metabolism.

Another data set concerns the target CYP 2C9 (Homo sapiens, UniProt P11712). Put plainly: Inhibition of cytochrome P450 enzyme in human liver microsomes, CYP 2C9. The settings on record: read-out: CYP 2C9 IC50; human liver microsomes; substrate Diclofenac.
For another data set, the target named is CYP 2D6 (Homo sapiens, UniProt P10635). Put plainly: Inhibition of cytochrome P450 enzyme in human liver microsomes, CYP 2D6. The settings on record: read-out: CYP 2D6 IC50; human liver microsomes; substrate Dextromethorphan.
The next data set concerns the target CYP 2C19 (Homo sapiens, UniProt P33261). As to the kind of experiment: Inhibition of cytochrome P450 enzyme in human liver microsomes, CYP 2C19. To be noted: read-out: CYP 2C19 IC50; human liver microsomes; substrate (S)-mephenytoin.

Structures can show the parent of a compound that is named as a salt. Where two headings read alike, the source gives them in different places.

With “1-(4-hydroxy-4-(3-methoxyphenyl)-3-(((methyl-d3)amino)methyl)-1-piperidinyl)-2(2,4,5-trifluorophenyl)ethyl-1-one [I-5hydrochloride]”, the μOR binding rate on μOR is 22.6 ± 1.7%. Besides, the δOR binding rate at δOR is 12.5 ± 2.9%. The molecule further returned a κOR binding rate on κOR of 19.1 ± 1.2%. For the same molecule, the “ED50, hot plate” value in the data set with Female Kunming mice worked out at 0.75 mg/kg. Moreover, at hERG potassium channel, the “hERG inhibition grade” value is given as “μM((Weak inhibition)” and the IC50 was determined as 13.5 µM.
As to `COc1cccc([C@]2(O)CCN(S(=O)(=O)Cc3ccccc3)C[C@H]2CN(C)C)c1.Cl` [Example 20 of CN201911076305.X, (3R, 4S)-1-(benzylsulfonyl)-3-(dimethylamino)methyl)-4-(3-methoxyphenyl)-4-piperidinol hydrochloride, reference compound], the IC50 at CYP 3A4 (substrate midazolam) is 32.3 µM; at CYP 3A4 (substrate testosterone), 46.4 µM; at CYP 1A2 it was greater than 50 µM; at CYP 2C9, greater than 50 µM; on CYP 2D6 it was 9.61 µM; at CYP 2C19 it was greater than 50 µM.
Take `[2H]C([2H])([2H])N(C)CC1CN(S(=O)(=O)Cc2ccccc2)CCC1(O)c1cccc(OC)c1` (stereo not drawn) [I-1hydrochloride]: the μOR binding rate on μOR is reported as 23.95 ± 3.8%. In addition, on δOR, the δOR binding rate was 11.4 ± 1.7%. On κOR, this molecule returned a κOR binding rate of 22.5 ± 3.2%. The median effective dose (ED50) (in general, the dose that gives a 50% effect, or the effect in half of the subjects) in the data set with Female Kunming mice came to 0.62 mg/kg. Also, at hERG potassium channel, the “hERG inhibition grade” value is listed as “μM((Weak inhibition)” and the IC50 stood at 12.9 µM.
`[2H]C([2H])([2H])Oc1cccc(C2(O)CCN(S(=O)(=O)Cc3ccccc3)CC2CN(C([2H])([2H])[2H])C([2H])([2H])[2H])c1` (stereo not drawn) [I-3hydrochloride] displayed a μOR binding rate on μOR of 22.75 ± 2.3%. Also, the δOR binding rate at δOR worked out at 8.6 ± 1.2%. Further, the κOR binding rate on κOR is 14.9 ± 0.9%. The molecule further displayed an ED50 with Female Kunming mice of 0.82 mg/kg. In addition, at hERG potassium channel, the “hERG inhibition grade” value is given as “μM((Weak inhibition)” and the IC50 is 16.6 µM.
`[2H]C([2H])([2H])N(CC1CN(S(=O)(=O)Cc2ccccc2)CCC1(O)c1cccc(OC)c1)C([2H])([2H])[2H]` (stereo not drawn) [I-4hydrochloride] displayed a μOR binding rate on μOR of 25.9 ± 3.9%. Further, the δOR binding rate on δOR was 10.1 ± 0.6%. The same molecule registered a κOR binding rate at κOR of 18.5 ± 3.2%. Besides, in the data set on Female Kunming mice, the “Maximum analgesic effective percentage (% MPE), hot plate” value was 100%. At hERG potassium channel, the “hERG inhibition grade” value is on record as “μM((Weak inhibition)” and the IC50 stood at 11 µM.
In turn, `[2H]C([2H])([2H])Oc1cccc(C2(O)CCN(C(=O)Cc3cc(F)c(F)cc3F)CC2CN(C([2H])([2H])[2H])C([2H])([2H])[2H])c1` (stereo not drawn) [I-7hydrochloride] had a μOR binding rate at μOR of 20.7 ± 2.2%. The δOR binding rate on δOR was found to be 9.9 ± 0.5%. Besides, the κOR binding rate at κOR is 15.9 ± 0.7%. For the same molecule, in the data set with Female Kunming mice, the 50% effect level (ED50) was put at a dose of 0.89 mg/kg. For the same molecule, on hERG potassium channel, the “hERG inhibition grade” value is on record as “μM((Weak inhibition)” and the IC50 is 21.6 µM.
Molecule `[2H]C([2H])([2H])N(CC1CN(C(=O)Cc2cc(F)c(F)cc2F)CCC1(O)c1cccc(OC)c1)C([2H])([2H])[2H]` (stereo not drawn) [I-8hydrochloride] registered a μOR binding rate on μOR of 22.8 ± 2.8%. The δOR binding rate at δOR was 8.2 ± 0.9%. Moreover, the κOR binding rate at κOR stood at 16.4 ± 2.6%. In addition, the “Maximum analgesic effective percentage (% MPE), hot plate” value in the data set with Female Kunming mice is 100%. For the same molecule, at hERG potassium channel, the “hERG inhibition grade” value is recorded as “μM((Weak inhibition)” and the IC50 amounted to 16.8 µM.
